Measured values taken from ChEMBL document CHEMBL5209581, “Membrane potential based assay for SLC6A5 using HEK-293 SLC6A5 OE cells” (2022).

Target: T1, Sodium- and chloride-dependent glycine transporter 2 (Homo sapiens, UniProt Q9Y345)
T1 sequence (Q9Y345 whole entry): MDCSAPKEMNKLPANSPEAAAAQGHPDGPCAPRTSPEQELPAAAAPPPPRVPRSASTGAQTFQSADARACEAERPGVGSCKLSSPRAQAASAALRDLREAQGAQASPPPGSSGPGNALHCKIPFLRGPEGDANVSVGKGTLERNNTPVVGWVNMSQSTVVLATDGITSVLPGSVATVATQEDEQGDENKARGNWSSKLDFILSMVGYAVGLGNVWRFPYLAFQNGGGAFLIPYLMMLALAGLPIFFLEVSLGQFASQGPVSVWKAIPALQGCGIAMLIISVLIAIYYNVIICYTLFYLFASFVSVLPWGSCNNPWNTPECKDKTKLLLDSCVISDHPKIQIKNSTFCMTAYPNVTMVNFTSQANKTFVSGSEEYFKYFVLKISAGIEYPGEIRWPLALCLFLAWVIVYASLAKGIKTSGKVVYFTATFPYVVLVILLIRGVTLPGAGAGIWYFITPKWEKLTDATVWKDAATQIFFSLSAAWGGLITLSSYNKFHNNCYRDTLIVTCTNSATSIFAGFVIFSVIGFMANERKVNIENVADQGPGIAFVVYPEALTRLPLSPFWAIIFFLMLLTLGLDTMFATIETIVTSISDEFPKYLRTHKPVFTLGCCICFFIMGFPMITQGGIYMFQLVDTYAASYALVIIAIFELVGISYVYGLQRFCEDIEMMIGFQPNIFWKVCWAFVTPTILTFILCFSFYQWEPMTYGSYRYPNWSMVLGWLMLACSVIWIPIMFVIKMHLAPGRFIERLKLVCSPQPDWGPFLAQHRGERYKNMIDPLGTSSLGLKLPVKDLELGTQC
Description: Substrate uptake by the Glycine Transporter-2 (GlyT2, SLC6A5) as assessed by the fluorescent FLIPR membrane potential dye in HEK-293 JumpIN-SLC6A5 cells (PubChem AID: 1794825)

EC50: 128 µM
SMILES: NCC(=O)O [GLYCINE]
